{
  "source": "patent US8435990B2",
  "about": "“Dihydropyrimidone amides as P2X7 modulators” (Roche Palo Alto LLC, priority 2009, dated 2013)",
  "data": [
    {"biological_target": "T1, human P2X7 (Homo sapiens, UniProt Q99572)", "T1 construct": "1321N1 cells stably expressing the full length human P2X7 gene (1321N1-hP2X7)", "T1 sequence (Q99572 1-595)": "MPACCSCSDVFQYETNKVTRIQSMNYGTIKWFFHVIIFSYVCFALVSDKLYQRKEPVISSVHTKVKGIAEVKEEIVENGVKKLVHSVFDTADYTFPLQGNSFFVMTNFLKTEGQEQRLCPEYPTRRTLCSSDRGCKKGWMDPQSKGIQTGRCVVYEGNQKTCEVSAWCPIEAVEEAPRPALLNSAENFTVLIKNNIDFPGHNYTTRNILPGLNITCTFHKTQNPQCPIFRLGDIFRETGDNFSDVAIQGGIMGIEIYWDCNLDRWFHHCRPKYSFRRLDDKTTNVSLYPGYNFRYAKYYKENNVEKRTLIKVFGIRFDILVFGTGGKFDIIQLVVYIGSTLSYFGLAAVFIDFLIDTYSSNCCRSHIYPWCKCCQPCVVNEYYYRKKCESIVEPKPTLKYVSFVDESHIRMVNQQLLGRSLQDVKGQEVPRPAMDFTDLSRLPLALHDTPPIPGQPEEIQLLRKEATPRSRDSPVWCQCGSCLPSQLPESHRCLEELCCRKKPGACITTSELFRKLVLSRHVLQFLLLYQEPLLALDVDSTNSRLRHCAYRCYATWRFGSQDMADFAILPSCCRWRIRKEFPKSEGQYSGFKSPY", "assay": "P2X7 modulator pIC50 of Table 1 (assay not given; Intracellular Calcium Flux (FLIPR) Assay assumed)", "type": "cell-based", "protocol": "Intracellular Calcium Flux (FLIPR) Assay\nStock solutions of compounds were prepared from powders as a 10 mM DMSO stock solution. These solutions were stored at RT during the two week period of these experiments to prevent freeze-thaw of the DMSO stocks. The DMSO stocks were added to the appropriate assay buffer at a concentration of 10 μM, and then diluted serially to the final concentrations that were tested. No observable precipitate was formed at any time during this process. The aqueous solutions of compounds as well as ATP (Sigma A7699) and BzATP (Sigma B6396) were prepared fresh for each day of experiment.\n1321N1 cells stably expressing the full length human P2X7 gene (1321N1-hP2X7) and HEK293 cells stably expressing the full length rat P2X7 gene (HEK293-rP2X7) were obtained from the Roche Cell Culture Facility. 1321N1-hP2X7 cells were grown in Dulbecco's Modified Eagle's Medium (DMEM) high glucose supplemented with 10% FBS and 250 μg/mL G418. HEK293-rP2X7 cells were grown in DMEM/F-12 supplemented with 10% FBS, 1 mM CaCl2, 2 mM MgCl2, 2 mM L-Glutamine and 500 μg/ml G418. Cells were split such that they never became >70% confluent.\nOn the day prior to the experiment, 1321N1-hP2X7 or HEK293-rP2X7 cells were released into suspension with calcium-free PBS+Versene and washed by centrifugation with calcium-free PBS to remove the Versene. Cells were resuspended in growth medium at a density of 2.5×10^5 cells/mL and seeded into black walled, clear bottom 96 well plates (50,000 cells/well) approximately 18 hr prior to intracellular calcium flux experiments.\nOn the day of the experiment, plates were washed with FLIPR buffer (calcium- and magnesium-free Hank's Balanced Salt Solution (HBSS) supplemented with 10 mM Hepes, 2.5 mM probenecid and 2 mM calcium chloride) using a BIO-TEK 96 channel plate washer and incubated with […] fluo-3 dye at 37° C. for one hr. The dye was then removed by plate washing and the cells were allowed to equilibrate for 20 min at room temperature with antagonist or vehicle (FLIPR buffer). Agonist (100 μM BzATP final concentration for hP2X7; 5μM BzATP final concentration or rP2X7) was added online with the FLIPR and fluorescence measurements made at 1 sec intervals for 60 sec followed by 3 sec intervals for a further 4 min (5 min total). A final addition of 5 μM ionomycin was made and the maximal BzATP-evoked fluorescence normalized to the maximal ionomycin-evoked fluorescence.", "units": {"IC50": "nM"}, "values": [
      {"smiles": "COC[C@H](O)Cn1c(=O)cnn(-c2ccc(C)c(NC(=O)C3=CN(C)C(=O)N[C@H]3c3ccc(F)cc3)c2)c1=O", "note": "[Compound 25, (S)-4-(4-Fluoro-phenyl)-1-methyl-2-oxo-1,2,3,4-tetrahydro-pyrimidine-5-carboxylic acid {5-[4-((R)-2-hydroxy-3-methoxy-propyl)-3,5-dioxo-4,5-dihydro-3H-[1,2,4]triazin-2-yl]-2-methyl-phenyl}-amide]", "IC50": 91.2},
      {"smiles": "Cc1ccc(-n2ncccc2=O)cc1NC(=O)C1=CN(C)C(=O)N[C@H]1c1ccc(F)cc1", "note": "[Compound 26]", "IC50": 20},
      {"smiles": "Cc1ccc(=O)n(-c2ccc(C)c(NC(=O)C3=CN(C)C(=O)N[C@H]3c3ccc(F)cc3)c2)n1", "note": "[Compound 27, (S)-4-(4-Fluoro-phenyl)-1-methyl-2-oxo-1,2,3,4-tetrahydro-pyrimidine-5-carboxylic acid [2-methyl-5-(3-methyl-6-oxo-6H-pyridazin-1-yl)-phenyl]-amide]", "IC50": 40.3},
      {"smiles": "Cc1ccc(-c2cncc(=O)[nH]2)cc1NC(=O)C1=CN(C)C(=O)N[C@H]1c1ccc(F)cc1", "note": "[Compound 28, (S)-4-(4-Fluoro-phenyl)-1-methyl-2-oxo-1,2,3,4-tetrahydro-pyrimidine-5-carboxylic acid [2-methyl-5-(6-oxo-1,6-dihydro-pyrazin-2-yl)-phenyl]-amide]", "IC50": 153},
      {"smiles": "Cc1cc(Cl)c(OCCO)cc1NC(=O)C1=CN(C)C(=O)N[C@@H]1C1CCCCC1", "note": "[Compound 29, (R)-4-Cyclohexyl-1-methyl-2-oxo-1,2,3,4-tetrahydro-pyrimidine-5-carboxylic acid [4-chloro-5-(2-hydroxy-ethoxy)-2-methyl-phenyl]-amide]", "IC50": 54.7},
      {"smiles": "Cc1cc(Cl)c(OCCO)cc1NC(=O)C1=CN(C)C(=O)N[C@H]1c1cccc(F)c1", "note": "[Compound 30, (S)-4-(3-Fluoro-phenyl)-1-methyl-2-oxo-1,2,3,4-tetrahydro-pyrimidine-5-carboxylic acid [4-chloro-5-(2-hydroxy-ethoxy)-2-methyl-phenyl]-amide]", "IC50": 20.2},
      {"smiles": "Cc1ccc2[nH]c(=O)ccc2c1NC(=O)C1=CN(C)C(=O)N[C@H]1c1ccc(F)cc1", "note": "[Compound 31, (S)-4-(4-Fluoro-phenyl)-1-methyl-2-oxo-1,2,3,4-tetrahydro-pyrimidine-5-carboxylic acid (6-methyl-2-oxo-1,2-dihydro-quinolin-5-yl)-amide]", "IC50": 160},
      {"smiles": "Cc1ccc(-c2ccn[nH]c2=O)cc1NC(=O)C1=CN(C)C(=O)N[C@H]1c1ccc(F)cc1", "note": "[Compound 32, (S)-4-(4-Fluoro-phenyl)-1-methyl-2-oxo-1,2,3,4-tetrahydro-pyrimidine-5-carboxylic acid [2-methyl-5-(3-oxo-2,3-dihydro-pyridazin-4-yl)-phenyl]-amide]", "IC50": 21.1},
      {"smiles": "Cc1cc(-c2ccc(C)c(NC(=O)C3=CN(C)C(=O)N[C@H]3c3cccc(F)c3)c2)n[nH]1", "note": "[Compound 33, (S)-4-(3-Fluoro-phenyl)-1-methyl-2-oxo-1,2,3,4-tetrahydro-pyrimidine-5-carboxylic acid [2-methyl-5-(5-methyl-1H-pyrazol-3-yl)-phenyl]-amide]", "IC50": 107},
      {"smiles": "CCc1c(NC(=O)C2=CN(C)C(=O)N[C@H]2c2ccc(F)cc2)ccc2nc(C)ccc12", "note": "[Compound 34, (S)-4-(4-Fluoro-phenyl)-1-methyl-2-oxo-1,2,3,4-tetrahydro-pyrimidine-5-carboxylic acid (5-ethyl-2-methyl-quinolin-6-yl)-amide]", "IC50": 53.7},
      {"smiles": "Cc1ccc(-n2ncc(=O)n(C)c2=O)cc1NC(=O)C1=CN(C)C(=O)N[C@H]1c1ccc(F)cc1", "note": "[Compound 35, (S)-4-(4-Fluoro-phenyl)-1-methyl-2-oxo-1,2,3,4-tetrahydro-pyrimidine-5-carboxylic acid [2-methyl-5-(4-methyl-3,5-dioxo-4,5-dihydro-3H-[1,2,4]triazin-2-yl)-phenyl]-amide]", "IC50": 106},
      {"smiles": "COC[C@@H](O)Cn1nc(-c2ccc(C)c(NC(=O)C3=CN(C)C(=O)N[C@H]3c3ccc(F)cc3)c2)cc1C", "note": "[Compound 36, (S)-4-(4-Fluoro-phenyl)-1-methyl-2-oxo-1,2,3,4-tetrahydro-pyrimidine-5-carboxylic acid {5-[1-((S)-2-hydroxy-3-methoxy-propyl)-5-methyl-1H-pyrazol-3-yl]-2-methyl-phenyl}-amide]", "IC50": 140},
      {"smiles": "Cc1ccc(-n2ncc(=O)n(C)c2=O)cc1NC(=O)C1=CN(C)C(=O)N[C@H]1c1cccc(F)c1", "note": "[Compound 37, (S)-4-(3-Fluoro-phenyl)-1-methyl-2-oxo-1,2,3,4-tetrahydro-pyrimidine-5-carboxylic acid [2-methyl-5-(4-methyl-3,5-dioxo-4,5-dihydro-3H-[1,2,4]triazin-2-yl)-phenyl]-amide]", "IC50": 36.3},
      {"smiles": "CCn1nccc(-c2ccc(C)c(NC(=O)C3=CN(C)C(=O)N[C@H]3c3ccc(F)cc3)c2)c1=O", "note": "[Compound 38, (S)-4-(4-Fluoro-phenyl)-1-methyl-2-oxo-1,2,3,4-tetrahydro-pyrimidine-5-carboxylic acid [5-(2-ethyl-3-oxo-2,3-dihydro-pyridazin-4-yl)-2-methyl-phenyl]-amide]", "IC50": 14.3},
      {"smiles": "COCCN1C=C(C(=O)Nc2cc(OCCO)c(Cl)cc2C)[C@H](c2ccc(F)cc2)NC1=O", "note": "[Compound 39, (S)-4-(4-Fluoro-phenyl)-1-(2-methoxy-ethyl)-2-oxo-1,2,3,4-tetrahydro-pyrimidine-5-carboxylic acid [4-chloro-5-(2-hydroxy-ethoxy)-2-methyl-phenyl]-amide]", "IC50": 43},
      {"smiles": "Cc1ccc(-c2ccc(=O)n(C)n2)cc1NC(=O)C1=CN(C)C(=O)N[C@H]1c1ccc(F)cc1", "note": "[Compound 40, (S)-4-(4-Fluoro-phenyl)-1-methyl-2-oxo-1,2,3,4-tetrahydro-pyrimidine-5-carboxylic acid [2-methyl-5-(1-methyl-6-oxo-1,6-dihydro-pyridazin-3-yl)-phenyl]-amide]", "IC50": 72.4},
      {"smiles": "Cc1ccc(-c2ccc(=O)[nH]n2)cc1NC(=O)C1=CN(C)C(=O)N[C@H]1c1ccc(F)cc1", "note": "[Compound 41, (S)-4-(4-Fluoro-phenyl)-1-methyl-2-oxo-1,2,3,4-tetrahydro-pyrimidine-5-carboxylic acid [2-methyl-5-(6-oxo-1,6-dihydro-pyridazin-3-yl)-phenyl]-amide]", "IC50": 29.2},
      {"smiles": "Cc1cc2cnn(CCO)c2cc1NC(=O)C1=CN(C)C(=O)N[C@H]1c1ccc(F)cc1", "note": "[Compound 42]", "IC50": 14.5},
      {"smiles": "COC[C@H](O)Cn1nccc(-c2ccc(C)c(NC(=O)C3=CN(C)C(=O)N[C@H]3c3ccc(F)cc3)c2)c1=O", "note": "[Compound 43, (S)-4-(4-Fluoro-phenyl)-1-methyl-2-oxo-1,2,3,4-tetrahydro-pyrimidine-5-carboxylic acid {5-[2-((R)-2-hydroxy-3-methoxy-propyl)-3-oxo-2,3-dihydro-pyridazin-4-yl]-2-methyl-phenyl}-amide]", "IC50": 29.9},
      {"smiles": "Cc1ccc(-c2ccnn(C)c2=O)cc1NC(=O)C1=CN(C)C(=O)N[C@H]1c1cccc(F)c1", "note": "[Compound 44, (S)-4-(3-Fluoro-phenyl)-1-methyl-2-oxo-1,2,3,4-tetrahydro-pyrimidine-5-carboxylic acid [2-methyl-5-(2-methyl-3-oxo-2,3-dihydro-pyridazin-4-yl)-phenyl]-amide]", "IC50": 54.3},
      {"smiles": "CN1C=C(C(=O)Nc2cc(N3CCCC3=O)ccc2Br)[C@H](c2ccc(F)cc2)NC1=O", "note": "[Compound 45, (S)-4-(4-Fluoro-phenyl)-1-methyl-2-oxo-1,2,3,4-tetrahydro-pyrimidine-5-carboxylic acid [2-bromo-5-(2-oxo-pyrrolidin-1-yl)-phenyl]-amide]", "IC50": 138},
      {"smiles": "Cc1cc2cnn(C)c2cc1NC(=O)C1=CN(C)C(=O)N[C@H]1c1ccc(F)cc1", "note": "[Compound 46]", "IC50": 12.2}
    ]}
  ]
}
